Entries after “also recorded” stand apart in the source; their conditions may differ.
Key:
[1] = test system: colonic epithelial T84 cells (calcium-mediated chloride ion secretion); experiment: Inhibition of calcium-mediated chloride ion secretion (Table I summary); assay type: cell-based, human; conditions: pathway: Ins (3,4,5,6)P4
Excerpt: The invention provides compounds that are agonists or antagonists of inositol polyphosphates. Inositol polyphosphate derivatives can function as inositol polyphosphate agonists and antagonists. The effects of compounds of the invention on Ins(3,4,5,6)P4 - and PtdInsP3 -mediated inhibition of calcium-mediated chloride ion secretion are described in the Examples and summarized in Table I.
Enantiomerically pure 1,2-Bt2 -Ins(3,4,5,6)P4 /AM was synthesized to determine if 1,2-Bt2 -Ins(3,4,5,6)P4 /AM mediates the uncoupling of chloride ion secretion from intracellular calcium concentrations. T84 cells (passages 18-48) were maintained as described previously (Weymer, et al., J. Clin. Invest. 76:1828 (1985)), which is incorporated herein by reference. After 7-10 days of incubation on SNAP-WELLS (Corning Costar; Cambridge, Mass.), monolayers had formed tight junctions. Cell monolayers were preincubated with 100, 200 or 400 μM Bt2 -Ins(3,4,5,6)P4 /AM for 30 min prior to mounting. After an additional 30 min, 0.1 mM histamine was added and chloride ion secretion was monitored. Chloride ion secretion was measured as short circuit current (Isc) across T84 monolayers grown to confluence and mounted in Ussing chambers equipped with voltage clamps (Physiologic Instruments; San Diego, Calif.). Data was acquired and analyzed using "Acquire and Analyze" software (Physiologic Instruments).

[2] = test system: T84 colonic epithelial cells (carbachol-mediated inhibition of chloride ion secretion); experiment: Reversal of carbachol-mediated inhibition of thapsigargin-stimulated chloride ion secretion in T84 cells; assay type: cell-based, human; conditions: carbachol 10^-4 M, thapsigargin 1 μM
Description: T84 colonic epithelial cells were treated with D,L-1,2-cyclohexylidene-Ins(3,4,5,6)P4 /AM, 1-Bu-2-Bt-Ins(3,4,5,6)P4 /AM, Bu2 -Ins(3,4,5,6)P4 /AM, 3-Bt-2-Bu-Ins(1,4,5,6)P4 /AM, Bu2 -Ins(1,4,5,6)P4 /AM, 1-Bt-2-Bu-Ins(3,4,5,6)P4 /AM or 3-Bu-2-Bt-Ins(1,4,5,6)P4 /AM and the short circuit current was measured.
One set of cells was preincubated for 30 min with an inositol polyphosphate derivative. The other two sets of cells were preincubated with vehicle, alone. Measurement of Isc was initiated at time 0. At 5 min, carbachol (10^-4 M) was added to one set of cells preincubated with vehicle alone (designated "Carbachol" in FIG. 5) and to the set of cells preincubated with inositol polyphosphate derivatives (designated "Carbachol+D,L-1,2-Cyclohexylidene-Ins(3,4,5,6)P4 /AM" in FIG. 5A). At 30 min, 1 μM thapsigargin was added. Data were collected for n=4 to 6 experiments.

[3] = test system: T84 cells (Ins(3,4,5,6)P4 inhibition of histamine-stimulated chloride ion secretion); experiment: Reversal of Bt2 -Ins(3,4,5,6)P4 /AM inhibition of histamine-stimulated chloride ion secretion in T84 cells; assay type: cell-based, human; conditions: T84 cells, histamine-stimulated
Description: Initial studies were directed towards understanding structural determinants of Ins(3,4,5,6)P4 responsible for the inhibitory effect on calcium-mediated chloride ion secretion. A series of cell permeable inositol polyphosphate derivatives were synthesized. These derivatives contained either one or two non-hydrolyzable chemical groups on the 1, 2 or 3 position. T84 monolayers were preincubated for 30 minutes with 200 μM of 2-Bt-1-Me-Ins(3,4,5,6)P4 /AM, Me2 -Ins(3,4,5,6)P4 /AM, Me2 -Ins(1,4,5,6)P4 /AM or 2-Bt-3-Me-Ins(1,4,5,6)P4 /AM.
Following the incubation, cells were mounted in Ussing chambers. Calcium-mediated chloride ion secretion was stimulated with histamine (10^-4 M). Control values were the response to histamine in coincubated monolayers. Data are represented as mean peak ΔIsc ±SEM, expressed as % control for 8 to 10 experiments. Significant differences were identified using the Student's two-tailed t test.
T84 cells were preincubated with cell permeant inositol polyphosphates as described above to determine if any of the inositol polyphosphate derivatives function as antagonists of Ins(3,4,5,6)P4 inhibition of calcium-mediated chloride ion secretion. Following histamine stimulation, short circuit current was measured. […] The % control shown in FIG. 3 represents ΔIsc over peak Isc in control monolayers stimulated with histamine. However, […]

[4] = test system: T84 cells (EGF induced inhibition of chloride ion secretion); conditions: cited from earlier work
[5] = test system: phosphatidylinositol 3-kinase (PI 3-kinase); conditions: Uribe et al. 1996b; cited from earlier work
[6] = test system: T84 cells (EGF induced inhibition of chloride ion secretion); experiment: EGF induced inhibition of carbachol-stimulated chloride ion secretion in T84 cells and its reversal; assay type: cell-based, human; conditions: EGF 16.3 nM, carbachol 100 μM
Description: After an additional 15 min incubation, 100 μM carbachol was added to acutely elevate intracellular calcium concentrations. Controls also were stimulated with carbachol but were not pretreated with EGF. Data are the means of duplicate measurements from a representative experiment (total of three experiments).

[7] = test system: Ins(3,4,5,6)P4; conditions: background; cited from earlier work

| Molecule | Mechanism and Inositol Polyphosphate Pathway Affected [1] | reversal of carbachol-mediated inhibition of chloride ion secretion (in words) [2] | reversal of the inhibitory effect of Bt2 -Ins(3,4,5,6)P4 /AM / Ins(3,4,5,6)P4-mediated inhibition (in words) [3] | reversal of EGF induced inhibition of chloride ion secretion (in words) ([4]; Uribe et al. 1996b) | effect on formation of PI 3-kinase products (in words) [5] | effect on carbachol-stimulated chloride ion secretion / EGF induced inhibition (in words) [6] | increase in Ins(3,4,5,6)P4 levels [7] | effect on calcium-mediated chloride ion secretion induced by carbachol and thapsigargin (in words) ([4]; Uribe et al. 1996) |
| --- | --- | --- | --- | --- | --- | --- | --- | --- |
| CC(=O)OCOP(=O)(OCOC(C)=O)O[C@H]1[C@H](OP(=O)(OCOC(C)=O)OCOC(C)=O)[C@@H](OP(=O)(OCOC(C)=O)OCOC(C)=O)[C@H]2OC3(CCCCC3)O[C@H]2[C@@H]1OP(=O)(OCOC(C)=O)OCOC(C)=O (relative stereo) [rac-1,2-Di-O-cycloheylidene-myo-inositol 3,4,5,6-tetrakisphosphate octakis(acetoxymethyl)ester] | Antagonist of | enhanced chloride ion secretion; also recorded: reversed the inhibitory effect of carbachol on calcium-mediated chloride ion secretion; also recorded: reversed the carbachol-mediated inhibition of chloride ion secretion stimulated by thapsigargin |  |  |  |  |  |  |
| CCCCO[C@@H]1[C@H](OC(=O)CCC)[C@H](OP(=O)(OCOC(C)=O)OCOC(C)=O)[C@@H](OP(=O)(OCOC(C)=O)OCOC(C)=O)[C@H](OP(=O)(OCOC(C)=O)OCOC(C)=O)[C@H]1OP(=O)(OCOC(C)=O)OCOC(C)=O [1-Bu-2-Bt-Ins(3,4,5,6)P4 /AM, D-1-O-Butyl-2-O-butyryl-myo-inositol 3,4,5,6-tetrakisphosphate octakis(acetoxymethyl)ester] | Antagonist of | enhanced chloride ion secretion; also recorded: reversed the carbachol-mediated inhibition of chloride ion secretion stimulated by thapsigargin | reversed Ins(3,4,5,6)P4 -mediated inhibition of chloride ion secretion |  |  |  |  |  |
| CCCCO[C@@H]1[C@H](OCCCC)[C@H](OP(=O)(OCOC(C)=O)OCOC(C)=O)[C@@H](OP(=O)(OCOC(C)=O)OCOC(C)=O)[C@H](OP(=O)(OCOC(C)=O)OCOC(C)=O)[C@H]1OP(=O)(OCOC(C)=O)OCOC(C)=O [Bu2 -Ins(3,4,5,6)P4 /AM, D-1,2-Di-O-butyl-myo-inositol 3,4,5,6-tetrakisphosphate octakis(acetozymethyl)ester] | Antagonist of | enhanced chloride ion secretion; also recorded: reversed the carbachol-mediated inhibition of chloride ion secretion stimulated by thapsigargin | reversed Ins(3,4,5,6)P4 -mediated inhibition of chloride ion secretion |  |  |  |  |  |
| COC[C@H]1OC(=O)c2coc3c2[C@@]1(C)C1=C(C3=O)[C@@H]2CCC(=O)[C@@]2(C)C[C@H]1OC(C)=O [Wortmannin, reference compound] |  |  |  | reversed the EGF induced inhibition of chloride ion secretion | blocked formation of PtdInsP3 and PtdInsP2 |  |  |  |
| EGF: epidermal growth factor (EGF) |  |  |  |  | stimulated an increase in levels of the PI 3-kinase products | decreased chloride ion secretion; also recorded: inhibited carbachol stimulated chloride ion secretion | 1.7 -fold | inhibits calcium-mediated chloride ion secretion |
